Measured values: US12708640B2, “Synergistic nutritional compositions for treating vestibular associated neurodegenerative diseases” (CELAGENEX RESEARCH (INDIA) PVT. LTD., priority 2021, dated 2026)

What was measured:
Type in all cases: in vivo, Albino Wistar rat
[1] = Rat body weight in the sodium arsanilate vestibular dysfunction study; settings: rats, group value
Source text: (§1) “Evaluation of test substance on sodium arsanilate induced vestibular dysfunction (Vertigo disorder) in wistar rats”.
(§2) • Test Species: Rat • Strain: Albino Wistar • Sex: Male/Female • Age: 6-8 Weeks • Body Weight: 180-200 g • Source: In house breed • Total No. of Animals: 42 Animals (7 groups of 6 animals each) • Feed: Normal chow diet (Purina lab diet 5L79 Rat and Mouse 18%) (PMI Nutrition International) Environmental Conditions:
(§3) All the animals were acclimatized for at least 5 days under controlled environmental condition. Total 42 animals were divided into seven groups consisting of 6 animals per group. Normal control (G1) group receiving vehicle, disease control (G2) group receiving sodium arsanilate injection only, standard group (G3) receiving reference standard (vertin) and treatment groups G4, G5, G6 & G7 were treated with the test substances. All the groups (except normal control group) were induced with sodium arsanilate via intratymphanic injection. All the treatment groups were administered daily for 7 consecutive days.
Individual body weights were recorded at receipt, on the day of randomization, on the first day of treatment before dosing and weekly once thereafter throughout the treatment period. The body weight changes for all the animals were calculated and reported along with the body weight data.

[2] = Rat feed consumption in the sodium arsanilate vestibular dysfunction study; settings: rats, group value
Source text: as §1, §2, §3
The feed consumption was calculated and reported on a daily basis throughout the study period.

[3] = system: sodium arsanilate induced vestibular dysfunction (Vertigo disorder) in wistar rats; experiment: Air righting reflex (air reflecting index)
Source text: as §1
(§4) Vestibular dysfunction was induced in rats by intratympanic injection of sodium arsanilate an ototoxic compound. Sodium arsanilate is an arsenic derivative and intratympanic injection result was vestibular nerve degeneration in brain stem with concomitant loss of labyrinthine righting and reduced postural support with exaggerated head dorsiflexion.
as §3
A sponge was spread on a flat surface and the animals were placed in a supine position in the air 50 cm away above the sponge, following which the animal was dropped horizontally.
Four-legged smooth landing on the ground was considered as positive (normal animal), whereas the body or other regions landing first was considered vestibular dysfunction animals. The positive landing rate (%) of each rat in each group was recorded.

[4] = system: sodium arsanilate induced vestibular dysfunction (Vertigo disorder) in wistar rats; experiment: Contact righting reflex
Source text: as §1, §4, §3
The rats were placed in a syringe core tube in a supine position, following which the recovery time for position correction to be recorded. Normal rats turned over their body position in a few seconds.

[5] = system: sodium arsanilate induced vestibular dysfunction (Vertigo disorder) in wistar rats; experiment: Open field test
Source text: as §1, §4, §3
The open-field was circular, with a diameter of 90 cm, and enclosed by a wall 30 cm high. The floor and wall of the open-field was black and the floor was divided into 25 equal area sections by thin white lines. The floor was covered with a transparent plastic coating. The open-field apparatus was located inside a large wooden frame which surrounded on all sides by black curtains. The field was illuminated by two 60-W fluorescent lights located 100 cm above the floor.
At the start of each session the rats were placed in one of the peripheral sections of the open-field and the animal's behavior was monitored by an observer for 10 consecutive minutes. […] At the end of each session the rat was returned to its home cage and the floor of the open-field was cleaned and sponged over with a weak vinegar solution to remove any residual odors.

[6] = open field test, wrt. disease control G2

O=c1ccn([C@@H]2O[C@H](COP(=O)(O)O)[C@@H](O)[C@H]2O)c(=O)[nH]1 [Group 5, Uridine monophosphate]
Body Weight, End of the treatment ([1]; after 7 days daily treatment): 190.08 gm
Body Weight, Initial ([1]; initial): 189.02 gm
Feed Consumption, 0 day ([2]; 0 day): 15.50 gm
Feed Consumption, 7th day ([2]; 7th day): 16.67 gm
Air Righting Reflex (% successfully righted within 5 s) ([3]; animal 1): 40%
Air Righting Reflex, Successful out of 5 ([3]; animal 1, end of 7-day treatment): 2
Air Righting Reflex (% successfully righted within 5 s) ([3]; animal 2): 40%
Air Righting Reflex, Successful out of 5 ([3]; animal 2, end of 7-day treatment): 2
Air Righting Reflex (% successfully righted within 5 s) ([3]; animal 3): 20%
Air Righting Reflex, Successful out of 5 ([3]; animal 3, end of 7-day treatment): 1
Air Righting Reflex (% successfully righted within 5 s) ([3]; animal 4): 40%
Air Righting Reflex, Successful out of 5 ([3]; animal 4, end of 7-day treatment): 2
Air Righting Reflex (% successfully righted within 5 s) ([3]; animal 5): 20%
Air Righting Reflex, Successful out of 5 ([3]; animal 5, end of 7-day treatment): 1
Air Righting Reflex (% successfully righted within 5 s) ([3]; animal 6): 40%
Air Righting Reflex, Successful out of 5 ([3]; animal 6, end of 7-day treatment): 2
Air Righting Reflex (% of Rats that successfully righted themselves within 5 s), Average ([3]; group average of 6 animals): 33.33%
Contact righting reflex (time) ([4]; animal 1, recovery time for position correction): 30 s
Contact righting reflex (time) ([4]; animal 2, recovery time for position correction): 29 s
Contact righting reflex (time) ([4]; animal 3, recovery time for position correction): 28 s
Contact righting reflex (time) ([4]; animal 4, recovery time for position correction): 27 s
Contact righting reflex (time) ([4]; animal 5, recovery time for position correction): 30 s
Contact righting reflex (time) ([4]; animal 6, recovery time for position correction): 26 s
Contact righting reflex (time), Average ([4]; group average of 6 animals): 28.33 s
contact righting reflex, improvement (wrt. the Disease Control) ([4]; wrt. the Disease Control): ≤ 30%
Ambulation Score [the number of open-field sections entered by the rat] ([5]; animal 1): 200
Defecation [the number of fecal boli deposited in the open-field] ([5]; animal 1): 4
Grooming [the number of grooming bouts exhibited by the rat] ([5]; animal 1): 2
Rearing Responses [the number of times the animal raised both forefeet off the floor and extended its body] ([5]; animal 1): 3
Ambulation Score [the number of open-field sections entered by the rat] ([5]; animal 2): 180
Defecation [the number of fecal boli deposited in the open-field] ([5]; animal 2): 2
Grooming [the number of grooming bouts exhibited by the rat] ([5]; animal 2): 4
Rearing Responses [the number of times the animal raised both forefeet off the floor and extended its body] ([5]; animal 2): 4
Ambulation Score [the number of open-field sections entered by the rat] ([5]; animal 3): 190
Defecation [the number of fecal boli deposited in the open-field] ([5]; animal 3): 3
Grooming [the number of grooming bouts exhibited by the rat] ([5]; animal 3): 3
Rearing Responses [the number of times the animal raised both forefeet off the floor and extended its body] ([5]; animal 3): 3
Ambulation Score [the number of open-field sections entered by the rat] ([5]; animal 4): 160
Defecation [the number of fecal boli deposited in the open-field] ([5]; animal 4): 4
Grooming [the number of grooming bouts exhibited by the rat] ([5]; animal 4): 3
Rearing Responses [the number of times the animal raised both forefeet off the floor and extended its body] ([5]; animal 4): 4
Ambulation Score [the number of open-field sections entered by the rat] ([5]; animal 5): 200
Defecation [the number of fecal boli deposited in the open-field] ([5]; animal 5): 3
Grooming [the number of grooming bouts exhibited by the rat] ([5]; animal 5): 4
Rearing Responses [the number of times the animal raised both forefeet off the floor and extended its body] ([5]; animal 5): 3
Ambulation Score [the number of open-field sections entered by the rat] ([5]; animal 6): 190
Defecation [the number of fecal boli deposited in the open-field] ([5]; animal 6): 4
Grooming [the number of grooming bouts exhibited by the rat] ([5]; animal 6): 4
Rearing Responses [the number of times the animal raised both forefeet off the floor and extended its body] ([5]; animal 6): 4
Ambulation Score [the number of open-field sections entered by the rat], Average ([5]; group average of 6 animals): 186.67
Defecation [the number of fecal boli deposited in the open-field], Average ([5]; group average of 6 animals): 3.33
Grooming [the number of grooming bouts exhibited by the rat], Average ([5]; group average of 6 animals): 3.33
Rearing Responses [the number of times the animal raised both forefeet off the floor and extended its body], Average ([5]; group average of 6 animals): 3.50
% Improvement in Ambulation score wrt. G2 [5, 6]: 25.83%
% Improvement in Defecation wrt. G2 [5, 6]: 23.08%
% Improvement in Grooming wrt. G2 [5, 6]: 57.45%
% Improvement in Rearing Responses wrt. G2 [5, 6]: 32.81%
